We go through 2 compounds from paper PMC7707092, “Discovery and characterization of ORM‐11372, a novel inhibitor of the sodium‐calcium exchanger with positive inotropic activity” (British Journal of Pharmacology, 2020).

One experiment deals with NCX. Set-up: method as in Jost et al., 2013; Kohajda et al., 2016. As to conditions: Dog, reference not given, ref Jost et al., 2013, Kohajda et al., 2016, cited from earlier work.
Experiment [1] addresses T1, human NaV1.5 channel current (I Na) (Homo sapiens, UniProt Q14524).
T1 construct: host or cells: HEK 293, transient (lipofectamine)
Kind of experiment: NaV1.5 channel current (I Na), patch‐clamp in HEK cells. It counts as cell-based. As to conditions: room temperature. The text has this:
The hERG‐encoded voltage‐dependent potassium channel current (I hERG) cells to be studied were harvested with Detachin solution and either diluted with a volume of CHO cell serum‐free media (supplemented with 100 IU·ml^−1 of penicillin/streptomycin and 25‐mM HEPES) to obtain cells, for which the cell density was ~4 x10^6 cells·ml^−1, or plated on glass coverslips and used on the following 1–2 days. HEK 293 cells were transiently transfected using lipofectamine (Invitrogen, USA), with a human sodium voltage‐gated channel subunit 5 (hSCN5) A (transcript variant 2)‐containing plasmid, in Optimem medium. After a 5‐h incubation period, the transfection medium was replaced with the normal growth medium. The cells were harvested by trypsinization, centrifuged and resuspended in the appropriate extracellular solution for performing studies the next day. CHO–5‐HT2B cells were plated into 96‐well plates on the previous day, at a density of 4 x10^4 cells per well, with a modified version of the growth media.
Manual patch‐clamp recordings of membrane currents (I NCX, L‐type Ca^2+ channel current [I CaL], human cardiac sodium 1.5 current [I Na], and I hERG) were undertaken using either an Axopatch 200B or Axopatch ID amplifier (Molecular Devices, USA), using the whole‐cell configuration. […]

The structures appear in SMILES notation. pIC50: −log10 of the molar value. Read-outs that look alike come from different tables or passages of the source.

T1 sequence (Q14524 1-2015 isoform Q14524-2): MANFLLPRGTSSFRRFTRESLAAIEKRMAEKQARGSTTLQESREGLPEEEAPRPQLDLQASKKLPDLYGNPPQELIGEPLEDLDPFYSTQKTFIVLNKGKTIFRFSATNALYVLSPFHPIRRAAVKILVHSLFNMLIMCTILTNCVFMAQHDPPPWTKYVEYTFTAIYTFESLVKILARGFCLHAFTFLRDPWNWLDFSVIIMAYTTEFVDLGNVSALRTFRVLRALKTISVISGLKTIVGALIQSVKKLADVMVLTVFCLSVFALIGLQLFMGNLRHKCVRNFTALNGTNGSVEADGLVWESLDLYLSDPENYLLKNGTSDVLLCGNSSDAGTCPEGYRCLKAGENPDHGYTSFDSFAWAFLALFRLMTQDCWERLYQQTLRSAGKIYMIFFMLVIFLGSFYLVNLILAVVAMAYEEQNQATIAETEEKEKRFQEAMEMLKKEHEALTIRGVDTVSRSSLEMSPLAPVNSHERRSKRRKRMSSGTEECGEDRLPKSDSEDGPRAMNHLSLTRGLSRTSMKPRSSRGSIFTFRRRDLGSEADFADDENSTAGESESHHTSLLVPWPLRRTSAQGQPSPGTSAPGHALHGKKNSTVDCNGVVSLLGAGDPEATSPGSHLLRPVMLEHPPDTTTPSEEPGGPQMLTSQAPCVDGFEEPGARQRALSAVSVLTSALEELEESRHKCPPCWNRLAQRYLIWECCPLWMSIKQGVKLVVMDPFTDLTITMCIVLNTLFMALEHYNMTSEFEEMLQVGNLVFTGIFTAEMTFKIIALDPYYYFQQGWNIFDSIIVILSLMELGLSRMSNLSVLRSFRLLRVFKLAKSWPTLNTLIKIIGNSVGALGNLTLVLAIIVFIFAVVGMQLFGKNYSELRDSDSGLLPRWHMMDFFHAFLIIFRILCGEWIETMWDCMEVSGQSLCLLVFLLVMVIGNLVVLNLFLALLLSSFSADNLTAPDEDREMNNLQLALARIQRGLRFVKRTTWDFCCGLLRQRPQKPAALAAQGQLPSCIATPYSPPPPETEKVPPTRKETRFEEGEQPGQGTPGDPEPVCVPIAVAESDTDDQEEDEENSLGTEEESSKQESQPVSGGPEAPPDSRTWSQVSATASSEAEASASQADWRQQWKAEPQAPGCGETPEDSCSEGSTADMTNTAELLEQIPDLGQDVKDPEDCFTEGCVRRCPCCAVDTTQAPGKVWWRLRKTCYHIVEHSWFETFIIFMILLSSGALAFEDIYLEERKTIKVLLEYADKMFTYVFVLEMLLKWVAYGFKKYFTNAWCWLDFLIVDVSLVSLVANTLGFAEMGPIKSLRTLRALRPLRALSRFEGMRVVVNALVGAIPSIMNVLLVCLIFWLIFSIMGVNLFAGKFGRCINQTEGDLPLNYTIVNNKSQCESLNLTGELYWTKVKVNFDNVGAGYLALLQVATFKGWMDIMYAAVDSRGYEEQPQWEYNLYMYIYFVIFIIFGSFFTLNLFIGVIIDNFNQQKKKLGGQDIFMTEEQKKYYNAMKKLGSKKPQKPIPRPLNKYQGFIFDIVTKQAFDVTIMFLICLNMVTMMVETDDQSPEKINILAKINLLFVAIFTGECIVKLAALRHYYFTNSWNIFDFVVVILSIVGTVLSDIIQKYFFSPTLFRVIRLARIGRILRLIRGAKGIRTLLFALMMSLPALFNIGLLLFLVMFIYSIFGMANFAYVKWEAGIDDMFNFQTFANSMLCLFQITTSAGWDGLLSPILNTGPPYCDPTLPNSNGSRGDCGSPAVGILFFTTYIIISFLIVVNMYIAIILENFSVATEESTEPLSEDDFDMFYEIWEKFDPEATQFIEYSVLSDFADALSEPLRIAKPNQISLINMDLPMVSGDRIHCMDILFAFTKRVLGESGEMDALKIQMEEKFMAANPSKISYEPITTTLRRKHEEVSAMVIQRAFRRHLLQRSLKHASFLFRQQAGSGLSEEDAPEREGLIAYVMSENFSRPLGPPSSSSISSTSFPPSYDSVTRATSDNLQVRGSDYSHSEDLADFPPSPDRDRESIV

In general, pIC50 refers to the IC50 on a negative log10 scale, so that one unit is a factor of ten. Turning to `O=C(CN1CCC(O)CC1)Nc1ccc(Oc2ccc3c(c2)CCC(c2ccccc2)O3)nc1` (stereo not drawn) [ORM-10962], the pIC50 in the experiment on NCX (read-out: IC50 NCX forward) was 7.17; in the experiment with NCX (read-out: IC50 NCX reverse), 7.26.

In the case of `Nc1cccc(-c2ccc(CNc3ccc(F)cc3)o2)c1` [ORM‐11372], in experiment [1], the pIC50 is 4.63.
